Consider eight molecules from publication PMC7717699, “Tuning the activity of iminosugars: novel N-alkylated deoxynojirimycin derivatives as strong BuChE inhibitors” (Journal of Enzyme Inhibition and Medicinal Chemistry, 2020).

Each structure is given as a SMILES string. Read-outs that look alike come from different tables or passages of the source.

Format in all cases: biochemical
Test [1] concerns the target T1, α-glucosidase (Saccharomyces cerevisiae) (Saccharomyces cerevisiae, UniProt P53341).
T1 construct: purchased
As to the kind of experiment: α-Glucosidase inhibition (p-nitrophenyl glycoside substrate). As for the experimental part:
(§1) For both families of enzymes used herein (glycosidases and cholinesterases), stock solutions of the inhibitors were prepared in DMSO; DMSO content was kept at 5% (V/V) for glycosidases and 1.25% (V/V) for cholinesterases. Enzymes were properly dissolved in water in a concentration in which the rate of the reaction when using [S] = 4 × KM is in the range 0.12–0.15 Abs/min. In both kinds of enzymes, an initial screening at 100 µM inhibitor concentration was performed, using the following substrate concentrations: [S] = 0.25 mM for α-glucosidase (Saccharomyces cerevisiae), 4.0 mM for β-glucosidase (almonds), 0.60 mM for α-galactosidase (green coffee beans), 0.51 mM for β-galactosidase (Escherichia coli), 1.5 mM for β-galactosidase (Aspergillus Oryzae), 0.12 mM for AChE (Electrophorus electricus), 0.11 mM for BuChE (equine serum). […] Each assay was run in duplicate.
(§2) Glycosidase assays were accomplished using the methodology reported by Bols and co-workers[30]. Each set of experiments is prepared in PS cuvettes using 0.1 M phosphate buffer (pH 6.8) and the corresponding o- or p-nitrophenyl glycopyranosides as substrates. Reactions were monitored at 25 °C by following the formation of the corresponding nitrophenolates at 400 nm (glucosidases and α-galactosidase) or 420 nm (β-galactosidases) over a time of 125 s.
(Dixon plot) and [S]/v vs. [I]. For the calculation of kinetic parameters (KM, Vmax) a nonlinear regression analysis (least squares fit, GraphPad Prism 8.01) was used. Data are expressed as the mean ± SD.
(§3) Assessment of the inhibitory capacity against glycosidases was accomplished using the methodology reported by Bols and co-workers[30]. p-Nitrophenyl glycosides (o- for β-galactosidases) were used as model substrates, and the release of the corresponding p-nitrophenolates at pH 6.8 was monitored spectrophotometrically (λmax = 400 or 420 nm for p- or o-nitrophenolates, respectively).

For another test, the system named is β-glucosidase (almonds). Put plainly: β-Glucosidase inhibition (p-nitrophenyl glycoside substrate). The note with it: for Mode of inhibition β-Glucosidase: Cornish–Bowden method; for IC50: almond enzyme, pH 6.8, 25 °C; for Ki: binding to free enzyme, read-out: Kia β-Glucosidase. As for the experimental part:
as §1, §2
(§4) For strong inhibitors, the mode of inhibition was determined using the Cornish–Bowden method, which involves the use of two different plots: 1/v vs. [I] (Dixon plot) and [S]/v vs. [I]. For the calculation of kinetic parameters (KM, Vmax) a nonlinear regression analysis (least squares fit, GraphPad Prism 8.01) was used. Data are expressed as the mean ± SD.
as §3

Test [2] has as its target T2, α-galactosidase (green coffee beans) (Coffea arabica, UniProt Q42656).
T2 construct: purchased; host or cells: green coffee beans
Put plainly: α-Galactosidase inhibition. How it is done:
as §1, with “Enzymes” for “For both families of enzymes used herein (glycosidases and cholinesterases), stock solutions of the inhibitors were prepared in DMSO; DMSO content was kept at 5% (V/V) for glycosidases and 1.25% (V/V) for cholinesterases. Enzymes”
Glycosidase assays were accomplished using the methodology reported by Bols and co-workers[30]. Each set of experiments is prepared in PS cuvettes using 0.1 M phosphate buffer (pH 6.8) and the corresponding o- or p-nitrophenyl glycopyranosides as substrates.
as §3

Test [3] concerns the target T3, β-galactosidase (Aspergillus Oryzae) (Aspergillus oryzae, UniProt Q2UCU3).
T3 construct: purchased
T3 sequence (Q2UCU3 19-1005): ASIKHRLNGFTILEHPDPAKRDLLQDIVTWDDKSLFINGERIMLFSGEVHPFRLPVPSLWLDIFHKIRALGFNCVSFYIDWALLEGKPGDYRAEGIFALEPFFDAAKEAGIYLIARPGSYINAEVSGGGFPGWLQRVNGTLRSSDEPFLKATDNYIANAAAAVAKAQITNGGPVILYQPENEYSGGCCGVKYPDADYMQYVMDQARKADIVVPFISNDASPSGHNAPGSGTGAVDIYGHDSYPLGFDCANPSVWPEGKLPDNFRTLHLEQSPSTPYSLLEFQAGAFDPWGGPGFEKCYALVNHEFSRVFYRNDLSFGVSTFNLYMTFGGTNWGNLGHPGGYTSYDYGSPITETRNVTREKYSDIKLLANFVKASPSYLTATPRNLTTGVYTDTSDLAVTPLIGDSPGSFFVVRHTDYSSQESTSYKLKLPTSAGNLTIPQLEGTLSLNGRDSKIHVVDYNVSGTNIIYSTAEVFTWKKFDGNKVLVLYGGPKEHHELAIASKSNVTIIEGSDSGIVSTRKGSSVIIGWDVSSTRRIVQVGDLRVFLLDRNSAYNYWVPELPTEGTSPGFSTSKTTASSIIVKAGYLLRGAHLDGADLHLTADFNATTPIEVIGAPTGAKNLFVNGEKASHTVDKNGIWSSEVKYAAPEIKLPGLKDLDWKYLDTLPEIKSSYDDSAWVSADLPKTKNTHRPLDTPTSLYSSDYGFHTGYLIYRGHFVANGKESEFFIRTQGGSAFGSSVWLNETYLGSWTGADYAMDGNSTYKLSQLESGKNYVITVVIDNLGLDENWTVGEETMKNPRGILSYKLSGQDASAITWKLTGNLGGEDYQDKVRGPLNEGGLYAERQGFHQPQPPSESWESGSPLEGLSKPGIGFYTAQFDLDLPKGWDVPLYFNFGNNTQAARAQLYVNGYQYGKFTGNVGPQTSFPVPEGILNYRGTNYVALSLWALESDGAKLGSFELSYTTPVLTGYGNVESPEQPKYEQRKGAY
As to the kind of experiment: β-Galactosidase (A. oryzae) inhibition. As for the experimental part: as §1, §2, §3

The target of test [4] is T4, β-galactosidase (Escherichia coli) (Escherichia coli, UniProt P00722).
T4 construct: purchased
As to the kind of experiment: β-Galactosidase (E. coli) inhibition. How it is done:
as §1, §2, §3

Test [5] has as its target AChE (Electrophorus electricus) (Electrophorus electricus, UniProt O42275). As to the kind of experiment: AChE inhibition, Ellman's assay. The conditions noted are these: for Mode of inhibition AChE: Cornish–Bowden method. As for the experimental part: as §1
(§5) For cholinesterases, minor modifications on Ellman’s assay[31] were performed. The activity was measured in PS cuvettes containing […] (pH 8.0), 0.88 mM DTNB, and substrate (acetyl- and butyryl-thiocholine iodides for AChE and BuChE, respectively), The formation of the chromophore was monitored at 405 nm over a time of 125 s.
as §4
(§6) Derivatives 11 and 12 were tested also against AChE (Electrophorus electricus) and BuChE (equine serum), as recognised models for human cholinesterases due to their close structural resemblance. For that purpose, Ellman’s colorimetric assay was used; this is an indirect test in which acetyl and butyryl thiocholine iodides are used as model substrates, which upon interaction with the enzyme release thiocholine, which in turn reacts with the chromogen reagent 5,5′-dithiobis(2-nitrobenzoic acid (DTNB) to give 2-nitro-5-mercaptobenzoate (at pH 8.0). The monitoring of the latter at 405 nm furnishes the kinetic parameters.
On the technique in general: In Ellman's method for cholinesterases, released thiocholine reacts with DTNB.

The target in another test is T5, BuChE (equine serum) (Equus caballus, UniProt P81908).
T5 construct: 0.11 mM for BuChE (equine serum); from tissue; host or cells: equine serum
Put plainly: BuChE inhibition, Ellman's assay. The note with it: for Mode of inhibition BuChE: Cornish–Bowden method. As for the experimental part: as §1, §5, §4, §6

Setting [6] is: Electrophorus electricus, pH 8.0, read-out: IC50 AChE.
[7] abbreviates: equine serum, pH 8.0, read-out: IC50 BuChE.
[8] abbreviates: binding to enzyme-substrate complex, read-out: Kib AChE.
[9] abbreviates: binding to free enzyme, read-out: Kia AChE.
[10] abbreviates: binding to enzyme-substrate complex, read-out: Kib BuChE.
Where [11] appears, read: binding to free enzyme, read-out: Kia BuChE.

T4 sequence (P00722 2-1024 limits assumed): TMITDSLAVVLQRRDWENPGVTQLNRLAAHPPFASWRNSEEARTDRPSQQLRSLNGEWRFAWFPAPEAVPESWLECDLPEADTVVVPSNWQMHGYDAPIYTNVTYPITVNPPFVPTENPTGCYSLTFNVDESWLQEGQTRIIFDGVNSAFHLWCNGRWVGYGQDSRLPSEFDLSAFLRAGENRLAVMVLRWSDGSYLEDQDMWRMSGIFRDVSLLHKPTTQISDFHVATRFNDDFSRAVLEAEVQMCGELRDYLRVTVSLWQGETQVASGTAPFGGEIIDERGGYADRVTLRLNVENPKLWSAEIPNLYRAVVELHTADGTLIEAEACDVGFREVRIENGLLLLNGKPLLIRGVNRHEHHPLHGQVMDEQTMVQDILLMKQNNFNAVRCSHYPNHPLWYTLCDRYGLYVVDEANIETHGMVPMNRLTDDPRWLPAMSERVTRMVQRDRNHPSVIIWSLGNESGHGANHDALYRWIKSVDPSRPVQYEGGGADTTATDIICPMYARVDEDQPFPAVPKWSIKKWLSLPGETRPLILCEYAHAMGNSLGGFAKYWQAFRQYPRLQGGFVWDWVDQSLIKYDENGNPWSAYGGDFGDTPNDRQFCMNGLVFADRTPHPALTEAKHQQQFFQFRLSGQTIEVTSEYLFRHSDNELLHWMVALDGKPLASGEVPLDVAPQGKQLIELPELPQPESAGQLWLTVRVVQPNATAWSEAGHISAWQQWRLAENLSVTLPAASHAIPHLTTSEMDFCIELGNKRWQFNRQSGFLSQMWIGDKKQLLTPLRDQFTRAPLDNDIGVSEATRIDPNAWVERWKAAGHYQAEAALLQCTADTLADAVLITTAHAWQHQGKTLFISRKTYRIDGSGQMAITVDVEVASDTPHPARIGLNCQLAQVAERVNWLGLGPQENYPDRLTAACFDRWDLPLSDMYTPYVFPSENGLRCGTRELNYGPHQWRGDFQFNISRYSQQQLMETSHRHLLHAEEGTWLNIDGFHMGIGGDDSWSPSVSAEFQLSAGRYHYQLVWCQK
T5 sequence (P81908 whole entry): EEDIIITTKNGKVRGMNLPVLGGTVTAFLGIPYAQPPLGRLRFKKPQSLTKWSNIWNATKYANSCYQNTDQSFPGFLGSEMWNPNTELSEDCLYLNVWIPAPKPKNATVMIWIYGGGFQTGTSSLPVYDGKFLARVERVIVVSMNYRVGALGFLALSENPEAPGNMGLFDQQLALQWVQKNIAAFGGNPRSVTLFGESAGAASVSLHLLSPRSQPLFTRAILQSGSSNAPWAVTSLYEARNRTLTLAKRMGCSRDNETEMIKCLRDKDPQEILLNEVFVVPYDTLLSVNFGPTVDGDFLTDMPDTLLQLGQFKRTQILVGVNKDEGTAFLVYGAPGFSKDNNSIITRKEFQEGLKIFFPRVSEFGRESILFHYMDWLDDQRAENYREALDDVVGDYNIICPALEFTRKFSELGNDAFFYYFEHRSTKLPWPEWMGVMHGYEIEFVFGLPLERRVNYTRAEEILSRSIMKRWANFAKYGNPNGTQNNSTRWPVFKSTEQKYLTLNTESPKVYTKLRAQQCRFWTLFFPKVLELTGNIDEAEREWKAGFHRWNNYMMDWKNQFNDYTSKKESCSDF
T2 sequence (Q42656 16-378): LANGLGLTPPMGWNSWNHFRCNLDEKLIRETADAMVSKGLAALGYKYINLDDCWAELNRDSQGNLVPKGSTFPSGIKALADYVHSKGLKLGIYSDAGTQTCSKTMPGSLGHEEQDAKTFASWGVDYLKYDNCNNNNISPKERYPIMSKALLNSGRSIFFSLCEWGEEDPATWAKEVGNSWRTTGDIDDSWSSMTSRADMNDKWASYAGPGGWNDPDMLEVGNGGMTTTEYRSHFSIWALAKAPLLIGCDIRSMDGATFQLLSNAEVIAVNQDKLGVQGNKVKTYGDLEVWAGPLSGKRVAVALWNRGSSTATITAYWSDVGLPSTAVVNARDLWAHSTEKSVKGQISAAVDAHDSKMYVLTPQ
AChE (Electrophorus electricus), sequence (O42275 24-633): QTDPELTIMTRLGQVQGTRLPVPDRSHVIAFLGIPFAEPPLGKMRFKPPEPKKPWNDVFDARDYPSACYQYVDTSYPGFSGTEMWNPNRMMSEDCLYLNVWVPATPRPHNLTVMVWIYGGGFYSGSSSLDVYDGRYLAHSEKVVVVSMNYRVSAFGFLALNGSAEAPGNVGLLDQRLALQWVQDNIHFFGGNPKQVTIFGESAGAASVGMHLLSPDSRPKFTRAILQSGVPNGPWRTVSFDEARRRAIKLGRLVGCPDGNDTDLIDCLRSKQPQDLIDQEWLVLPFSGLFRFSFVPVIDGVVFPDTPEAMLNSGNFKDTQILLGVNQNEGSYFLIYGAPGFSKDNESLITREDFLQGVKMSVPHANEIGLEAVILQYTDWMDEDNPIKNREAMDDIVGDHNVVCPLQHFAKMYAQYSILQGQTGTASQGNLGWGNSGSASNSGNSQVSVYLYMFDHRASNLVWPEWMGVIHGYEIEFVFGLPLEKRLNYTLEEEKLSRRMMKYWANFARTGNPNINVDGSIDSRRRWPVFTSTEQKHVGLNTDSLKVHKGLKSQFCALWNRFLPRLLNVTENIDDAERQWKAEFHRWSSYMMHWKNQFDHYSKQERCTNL
T1 sequence (P53341 whole entry): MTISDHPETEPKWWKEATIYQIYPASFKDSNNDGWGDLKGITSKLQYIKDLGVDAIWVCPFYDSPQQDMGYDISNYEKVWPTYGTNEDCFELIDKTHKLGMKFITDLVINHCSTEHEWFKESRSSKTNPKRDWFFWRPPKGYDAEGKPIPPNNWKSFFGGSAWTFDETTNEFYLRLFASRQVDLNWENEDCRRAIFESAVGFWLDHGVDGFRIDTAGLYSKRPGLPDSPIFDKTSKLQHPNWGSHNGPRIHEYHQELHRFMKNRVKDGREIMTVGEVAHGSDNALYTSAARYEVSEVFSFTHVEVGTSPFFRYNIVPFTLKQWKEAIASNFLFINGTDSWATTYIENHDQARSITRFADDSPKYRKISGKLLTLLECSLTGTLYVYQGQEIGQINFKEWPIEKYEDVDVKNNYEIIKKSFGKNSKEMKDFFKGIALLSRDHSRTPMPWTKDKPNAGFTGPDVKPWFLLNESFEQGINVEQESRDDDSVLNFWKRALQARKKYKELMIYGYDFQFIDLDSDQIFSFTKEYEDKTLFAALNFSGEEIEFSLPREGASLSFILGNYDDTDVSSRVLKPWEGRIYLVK

On to `OC[C@@H]1[C@@H](O)[C@H](O)[C@@H](O)CN1CCCCCCOCCc1ccccc1` [Compound 11a], for which the IC50 (usually the concentration needed to halve the response being measured) in test [1] is 126 µM; against β-glucosidase (almonds), 4.6 µM; in test [2], greater than 100 µM; in test [3] it was greater than 100 µM; in test [4], greater than 100 µM; in test [5] (setting [6]), greater than 100 µM. Besides, the IC50 at BuChE (equine serum) (setting [7]) was greater than 100 µM. The Ki worked out at 93 µM in test [1] and 6.5 µM on β-glucosidase (almonds). Besides, the “Mode of inhibition α-Glucosidase” value in test [1] (Cornish–Bowden method) was “Competitive”. In the test with β-glucosidase (almonds), the “Mode of inhibition β-Glucosidase” value is listed as “Competitive”.
As for `OC[C@H]1NC[C@H](O)[C@@H](O)[C@@H]1O` [Compound 1-DNJ, 1-deoxynojirimycin, reference compound], the IC50 is […] at β-glucosidase (almonds); greater than 100 µM in test [3] (Asp. Oryzae enzyme, read-out: IC50 β-Galactosidase (Asp. Oryzae)); greater than 100 µM in test [4] (E. coli enzyme, read-out: IC50 β-Galactosidase (E. coli)); greater than 100 µM in test [5]; 10 µM on BuChE (equine serum). Moreover, the Ki on BuChE (equine serum) was 16 ± 3 µM. Besides, at BuChE (equine serum), the “Mode of inhibition BuChE” value is on record as “Non-competitive”.
Regarding `OC[C@@H]1[C@@H](O)[C@H](O)[C@@H](O)CN1CCCCCOCCc1ccc(O)c(O)c1` [Compound 12d], the IC50 in test [1] was greater than 100 µM; against β-glucosidase (almonds), greater than 50 µM; in test [5] (setting [6]), greater than 100 µM; at BuChE (equine serum) (setting [7]) it was greater than 100 µM.
Consider `COc1ccc(CCOCCCCCN2C[C@H](O)[C@@H](O)[C@H](O)[C@H]2CO)cc1` [Compound 12c], for which the IC50 is greater than 100 µM in test [1]; 25 µM on β-glucosidase (almonds); greater than 100 µM in test [2]; greater than 100 µM in test [3]; greater than 100 µM in test [4]; greater than 100 µM in test [5] (setting [6]). Also, the IC50 on BuChE (equine serum) (setting [7]) was greater than 100 µM. Besides, the “Mode of inhibition β-Glucosidase” value in the test with β-glucosidase (almonds) is given as “Competitive”. Further, the Ki at β-glucosidase (almonds) turned out to be 14 ± 6 µM.
`OC[C@@H]1[C@@H](O)[C@H](O)[C@@H](O)CN1CCCCCCOCCc1ccc2c(c1)OCO2` [Compound 11g]: the IC50 is greater than 100 µM in test [1]; 8.4 µM on β-glucosidase (almonds); greater than 100 µM in test [2]; greater than 100 µM in test [3]; greater than 100 µM in test [4]; 48 µM in test [5] (setting [6]). For the same molecule, the IC50 on BuChE (equine serum) (setting [7]) was 7.3 µM. The “Mode of inhibition β-Glucosidase” value with β-glucosidase (almonds) is on record as “Competitive”. Further, the Ki worked out at 9 µM at β-glucosidase (almonds); 43 µM in test [5] (setting [8]); 56 µM in test [5] (setting [9]); 9.2 ± 1.9 µM at BuChE (equine serum) (setting [10]); 9.2 ± 1.9 µM on BuChE (equine serum) (setting [11]). The “Mode of inhibition AChE” value in test [5] is “Mixed”. Moreover, the “Mode of inhibition BuChE” value at BuChE (equine serum) is “Non-competitive”.
As to `COc1cc(CCOCCCCCCN2C[C@H](O)[C@@H](O)[C@H](O)[C@H]2CO)ccc1O` [Compound 11f], the concentration for half-maximal inhibition (IC50) in test [1] was greater than 100 µM; at β-glucosidase (almonds) it was 8.2 µM; in test [2], greater than 100 µM; in test [3], greater than 100 µM; in test [4], greater than 100 µM; in test [5] (setting [6]), 7.3 µM. For the same molecule, the IC50 at BuChE (equine serum) (setting [7]) turned out to be 1.8 µM. In addition, in the test on β-glucosidase (almonds), the “Mode of inhibition β-Glucosidase” value is given as “Competitive”. The Ki amounted to 9.6 µM at β-glucosidase (almonds); 17 ± 5 µM in test [5] (setting [8]); 17 ± 5 µM in test [5] (setting [9]); 5 µM at BuChE (equine serum) (setting [10]); 1.5 µM on BuChE (equine serum) (setting [11]). Also, in test [5], the “Mode of inhibition AChE” value was “Non-competitive”. For the same molecule, the “Mode of inhibition BuChE” value on BuChE (equine serum) is listed as “Mixed”.
`OC[C@@H]1[C@@H](O)[C@H](O)[C@@H](O)CN1CCCCCOCCc1ccccc1` [Compound 12a]: the concentration for half-maximal inhibition (IC50) in test [1] is greater than 100 µM; on β-glucosidase (almonds) it was 28 µM; in test [2], greater than 100 µM; in test [3], greater than 100 µM; in test [4], greater than 100 µM; in test [5] (setting [6]), greater than 100 µM. Further, the IC50 at BuChE (equine serum) (setting [7]) was greater than 100 µM. Besides, in the test on β-glucosidase (almonds), the “Mode of inhibition β-Glucosidase” value was “Competitive”. For the same molecule, the Ki at β-glucosidase (almonds) came out at 23 ± 4 µM.
Take `COc1ccc(CCOCCCCCCN2C[C@H](O)[C@@H](O)[C@H](O)[C@H]2CO)cc1` [Compound 11c]: the IC50 in test [1] was greater than 100 µM; against β-glucosidase (almonds), 6 µM; in test [2], greater than 100 µM; in test [3], greater than 100 µM; in test [4] it was greater than 100 µM; in test [5] (setting [6]) it was greater than 100 µM. For the same molecule, the IC50 at BuChE (equine serum) (setting [7]) was greater than 100 µM. Further, the “Mode of inhibition β-Glucosidase” value with β-glucosidase (almonds) is “Competitive”. The Ki on β-glucosidase (almonds) turned out to be 4.5 µM.
